Data reported in US20080312435A1, “Imine Compound” (TAISHO PHARMACEUTICAL CO., LTD., priority 2004, published 2008).

Key:
human CB2 receptor = target: T1, human CB2 receptor (Homo sapiens, UniProt P34972); test: Human CB2 receptor binding inhibition test ([3H]CP-55,940, CHO membrane fractions); details: [3H]CP-55,940, membrane fractions of CHO cells stably expressing human CB2 receptor, 25° C., 2 hours; read-out: CB2 IC50 (Inhibition of binding to human CB2 receptor)
T1 construct: expressed in transfected cells
T1 sequence (P34972 whole entry): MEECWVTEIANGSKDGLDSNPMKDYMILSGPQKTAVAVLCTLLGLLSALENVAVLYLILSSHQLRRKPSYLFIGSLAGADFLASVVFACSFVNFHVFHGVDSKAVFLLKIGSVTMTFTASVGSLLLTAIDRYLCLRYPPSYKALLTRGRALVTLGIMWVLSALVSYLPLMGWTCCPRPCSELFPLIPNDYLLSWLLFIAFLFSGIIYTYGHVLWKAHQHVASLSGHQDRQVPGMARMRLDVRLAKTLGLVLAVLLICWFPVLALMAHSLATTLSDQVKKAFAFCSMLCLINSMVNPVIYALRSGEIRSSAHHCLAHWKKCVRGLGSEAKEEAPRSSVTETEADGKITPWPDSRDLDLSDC
Source text: Human CB2 Receptor Binding Inhibition Test
First, cDNA sequence (Munro et al., Nature, 1993, 365, 61-65) encoding a human CB2 receptor was inserted in the forward direction in an animal-cell expression vector, pTARGET Vector (manufactured by Promega) at a region downstream of a CMV promoter. Host cells CHO-DHFR(−) were transfected with the obtained expression vector with the aid of Lipofectamine (manufactured by Invitrogen) to obtain cells capable of stably expressing the CB2 receptor.
After the filtrate was washed with an assay buffer containing 0.1% bovine serum albumin, the radioactivity on the glass filter was measured by a liquid scintillation counter. Nonspecific binding was measured in the presence of 2.0 μM CP-55,940 (manufactured by Tocris). 50% inhibitory concentration (IC50 value) of the test compound for the specific binding was obtained.

| Structure (SMILES) | melting point [°C] | IC50 (human CB2 receptor) [nM] |
| --- | --- | --- |
| CCOCCn1c(C)c(C(C)(C)C)s/c1=N\C(=O)c1cccc(C(F)(F)F)c1 [Compound No. 352, 5-t-butyl-3-(2-ethoxyethyl)-4-methyl-2-(3-trifluoromethylbenzoyl)imino-2,3-dihydrothiazole] | 91 to 92 | 2.3 |
| O=C(/N=c1\ccccn1CC1CCC1)c1cccc(C(F)(F)F)c1F [compound 12] | 93 to 94 | 13.3 |
| Cc1ccn(CC2CC2)/c(=N/C(=O)c2cccc(C(F)(F)F)c2F)c1 [compound 23] | 81 to 83 | 8.9 |
| Cc1cc/c(=N\C(=O)c2cccc(C(F)(F)F)c2F)n(CC2CC2)c1 [compound 24] | 118 to 120 | 7.5 |
| Cc1ccc/c(=N\C(=O)c2cccc(C(F)(F)F)c2F)n1CC1CC1 [compound 25] | 96 to 98 | 17.4 |
| O=C(/N=c1\cc(C(F)(F)F)ccn1CC1CC1)c1cccc(C(F)(F)F)c1F [compound 29] | 85 to 86 | 8.6 |
| O=C(/N=c1\cc(Cl)ccn1CC1CC1)c1cccc(C(F)(F)F)c1F [compound 33] | 91 to 93 | 8.2 |
| O=C(/N=c1\ccc(Cl)cn1CC1CC1)c1cccc(C(F)(F)F)c1F [compound 34] | 117 to 119 | 6.6 |
| O=C(/N=c1\cccc(Cl)n1CC1CC1)c1cccc(C(F)(F)F)c1F [compound 35] | 81 to 83 | 3.4 |
| O=C(/N=c1\ccc(F)cn1CC1CC1)c1cccc(C(F)(F)F)c1F [compound 37] | 89 to 91 | 11.3 |
| Cc1c(Br)cc/c(=N\C(=O)c2cccc(C(F)(F)F)c2F)n1CC1CC1 [compound 41] | 135 to 137 | 1.4 |
| Cc1c/c(=N\C(=O)c2cccc(C(F)(F)F)c2F)n(CC2CC2)c(C)c1Br [compound 46] | 121 to 122 | 1.2 |
| CC(C)(C)c1c/c(=N\C(=O)c2cc(C(F)(F)F)ccc2F)n(CC2CC2)s1 [compound 58] | 63 to 65 | 1.8 |
| Cc1cs/c(=N\C(=O)c2cccc(C(F)(F)F)c2F)n1CC1CC1 [compound 63] | 109 to 111 | 4.9 |
| Cc1cn(CC2CC2)/c(=N/C(=O)c2cccc(C(F)(F)F)c2F)s1 [compound 67] | 129 to 130 | 3 |
| CCn1c(C)c(C)s/c1=N\C(=O)c1cccc(C(F)(F)F)c1F [compound 70] | 198 to 200 | 14.9 |
| CCc1ccccc1C(=O)/N=c1\sc(C)c(C)n1CC1CC1 [compound 71] | 150 to 152 | 5.9 |
| Cc1s/c(=N\C(=O)c2ccccc2C(F)(F)F)n(CC2CC2)c1C [compound 74] | 125 to 127 | 4.6 |
| Cc1s/c(=N\C(=O)c2ccccc2Br)n(CC2CC2)c1C [compound 76] | 114 to 116 | 14.4 |
| Cc1s/c(=N\C(=O)c2cccc(Br)c2)n(CC2CC2)c1C [compound 77] | 159 to 160 | 19.3 |
| Cc1s/c(=N\C(=O)c2ccccc2I)n(CC2CC2)c1C [compound 78] | 130 to 132 | 9.8 |
| Cc1s/c(=N\C(=O)c2cccc(Cl)c2F)n(CC2CC2)c1C [compound 79] | 109 to 111 | 8.4 |
| Cc1s/c(=N\C(=O)c2cc(F)ccc2Cl)n(CC2CC2)c1C [compound 80] | 139 to 140 | 17.9 |
| Cc1s/c(=N\C(=O)c2cc(F)c(F)cc2Cl)n(CC2CC2)c1C [compound 85] | 161 to 163 | 18.9 |
| Cc1s/c(=N\C(=O)c2cc(F)c(Cl)cc2Cl)n(CC2CC2)c1C [compound 86] | 59 to 60 | 6.5 |
| COc1ccc(OC)c(C(=O)/N=c2\sc(C)c(C)n2CC2CC2)c1 [compound 88] | 124 to 126 | 17.8 |
